Results published in ChEMBL document CHEMBL4619813, “Virtual Screening for Ligand Discovery at the σ1 Receptor” (ACS Med Chem Lett, 2020).

target: Sigma non-opioid intracellular receptor 1 (Homo sapiens, UniProt Q99720); test: Displacement of [3H](+)-pentazocine from recombinant sigma 1 receptor (unknown origin) expressed in baculovirus infected Sf9 cell membranes after 1.5 hrs by scintillation counting analysis; details: not given
Sequence (Q99720 whole entry): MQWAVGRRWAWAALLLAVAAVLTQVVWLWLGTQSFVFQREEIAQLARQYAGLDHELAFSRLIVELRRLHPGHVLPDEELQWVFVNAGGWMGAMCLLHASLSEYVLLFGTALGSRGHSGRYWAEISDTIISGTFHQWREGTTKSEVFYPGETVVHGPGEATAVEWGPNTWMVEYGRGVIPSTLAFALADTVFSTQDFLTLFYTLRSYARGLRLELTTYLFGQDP

| SMILES | Ki [nM] | Kd [nM] |
| --- | --- | --- |
| O=C(c1ccc(C(F)(F)F)cc1)N1CCN(Cc2ccccc2)CC1 | 915 |  |
| Cc1nn(-c2ccccc2Cl)c(Cl)c1CNCc1cc(F)cc(F)c1 | 164 |  |
| NC(=O)c1cccc(CNC2CCN(c3ccc(F)c(Cl)c3)C2)c1 (stereo not given) | 220 |  |
| FC(F)(F)c1cccc(-c2ccc(CNCc3cccnc3)o2)c1 | 191 |  |
| Cc1[nH]c2cc(C(F)(F)F)ccc2c(=O)c1CN(C)Cc1ccccc1 | 89 |  |
| FC(F)(F)c1cccc(N2CCC(/N=C/c3ccc(Br)cc3)N2)c1 (stereo not given) |  | > 1000 |
| Cc1c(C(=O)NC(CN(C)C)c2ccccc2)cnn1-c1ccc(F)cc1 (stereo not given) |  | > 1000 |
| CC(CCc1c[nH]c2ccccc12)NC1CCN(C(=O)C(C)C)CC1 (stereo not given) |  | > 1000 |

The remaining lines, values ahead:

| Ki [nM] | Kd [nM] | SMILES |
| --- | --- | --- |
|  | > 1000 | O=C(c1c[nH]c2ccccc12)N1CCC(N2CCc3ccccc3C2)C1 (stereo not given) |
| 23 |  | Fc1ccc(CN2CCCN(C(=S)Nc3cc(F)cc(F)c3)C2)cc1 |
|  | > 1000 | NC(Cc1ccccc1)C(=O)N1CCN(c2ccc3nccn3n2)CC1 (stereo not given) |
| 18 |  | OC1COCCC1NC1CCN(c2ccc(C(F)(F)F)cn2)CC1 (stereo not given) |
| 127 |  | Cc1nn(CCO)cc1CN(C)Cc1csc(-c2ccccc2)n1 |

tested on: not listed separately; test: Selectivity ratio of Ki for displacement of [3H](+)-DTG from recombinant sigma 2 receptor (unknown origin) expressed in baculovirus infected Sf9 cell membranes to Ki for displacement of [3H](+)-pentazocine from recombinant sigma 1 receptor (unknown origin) expressed in baculovirus infected Sf9 cell membranes; details: Homo sapiens

| SMILES | Ratio Ki |
| --- | --- |
| Cc1nn(-c2ccccc2Cl)c(Cl)c1CNCc1cc(F)cc(F)c1 | 6 |
| NC(=O)c1cccc(CNC2CCN(c3ccc(F)c(Cl)c3)C2)c1 (stereo not given) | 1.1 |
| Cc1[nH]c2cc(C(F)(F)F)ccc2c(=O)c1CN(C)Cc1ccccc1 | 33.2 |

The remaining lines, values ahead:

| Ratio Ki | SMILES |
| --- | --- |
| 41.3 | Fc1ccc(CN2CCCN(C(=S)Nc3cc(F)cc(F)c3)C2)cc1 |
| 0.8 | OC1COCCC1NC1CCN(c2ccc(C(F)(F)F)cn2)CC1 (stereo not given) |
| 18.7 | Cc1nn(CCO)cc1CN(C)Cc1csc(-c2ccccc2)n1 |

target: Sigma intracellular receptor 2 (Homo sapiens, UniProt Q5BJF2); test: Displacement of [3H](+)-DTG from recombinant sigma 2 receptor (unknown origin) expressed in baculovirus infected Sf9 cell membranes after 1.5 hrs by scintillation counting analysis; details: not given
Sequence (Q5BJF2 whole entry): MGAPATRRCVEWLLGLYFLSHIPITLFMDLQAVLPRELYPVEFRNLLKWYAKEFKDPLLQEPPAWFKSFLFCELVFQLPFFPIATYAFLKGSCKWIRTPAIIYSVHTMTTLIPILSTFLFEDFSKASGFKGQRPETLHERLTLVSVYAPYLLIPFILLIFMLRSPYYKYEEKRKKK

| SMILES | Kd [nM] | Ki [nM] |
| --- | --- | --- |
| Cc1nn(-c2ccccc2Cl)c(Cl)c1CNCc1cc(F)cc(F)c1 |  | 985 |
| NC(=O)c1cccc(CNC2CCN(c3ccc(F)c(Cl)c3)C2)c1 (stereo not given) |  | 250 |
| Cc1[nH]c2cc(C(F)(F)F)ccc2c(=O)c1CN(C)Cc1ccccc1 |  | 2950 |
| FC(F)(F)c1cccc(N2CCC(/N=C/c3ccc(Br)cc3)N2)c1 (stereo not given) | > 1000 |  |
| Cc1c(C(=O)NC(CN(C)C)c2ccccc2)cnn1-c1ccc(F)cc1 (stereo not given) | > 1000 |  |
| CC(CCc1c[nH]c2ccccc12)NC1CCN(C(=O)C(C)C)CC1 (stereo not given) | > 1000 |  |

The remaining lines, values ahead:

| Kd [nM] | Ki [nM] | SMILES |
| --- | --- | --- |
| > 1000 |  | O=C(c1c[nH]c2ccccc12)N1CCC(N2CCc3ccccc3C2)C1 (stereo not given) |
|  | 949 | Fc1ccc(CN2CCCN(C(=S)Nc3cc(F)cc(F)c3)C2)cc1 |
| > 1000 |  | NC(Cc1ccccc1)C(=O)N1CCN(c2ccc3nccn3n2)CC1 (stereo not given) |
|  | 15 | OC1COCCC1NC1CCN(c2ccc(C(F)(F)F)cn2)CC1 (stereo not given) |
|  | 2370 | Cc1nn(CCO)cc1CN(C)Cc1csc(-c2ccccc2)n1 |
